From PubChem BioAssay (NCI)
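Step 1: Grow cells in 96-well plates. Step 2: Expose to compound for 48 hours at 5 concentrations. Step 3: Interpolate endpoints linearly; if unreached, use highest concentration. Abbreviation: GI50, concentration required for 50% inhibition of growth. TGI marks complete inhibition of growth.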

What was measured:
Assay in all cases: inhibition of tumour cell growth, NCI panel, 48 h
[1] = test system: 786-0 renal
[2] = test system: A498 renal
[3] = test system: A549 NSCLC
[4] = test system: ACHN renal
[5] = test system: BT-549 breast
[6] = test system: CAKI-1 renal
[7] = test system: CCRF-CEM leukemia
[8] = test system: COLO 205 colon
[9] = test system: DU-145 prostate
[10] = test system: EKVX NSCLC
[11] = test system: HCC-2998 colon
[12] = test system: HCT-116 colon
[13] = test system: HCT-15 colon
[14] = test system: HOP-62 NSCLC
[15] = test system: HOP-92 NSCLC
[16] = test system: HS 578T breast
[17] = test system: HT29 colon
[18] = test system: IGROV1 ovarian
[19] = test system: K-562 leukemia
[20] = test system: KM12 colon
[21] = test system: LOX IMVI melanoma
[22] = test system: M14 melanoma
[23] = test system: MALME-3M melanoma
[24] = test system: MCF7 breast
[25] = test system: MDA-MB-231 breast
[26] = test system: MDA-MB-435
[27] = test system: MOLT-4 leukemia
[28] = test system: NCI-H226 lung
[29] = test system: NCI-H23 lung
[30] = test system: NCI-H460 lung
[31] = test system: NCI-H522 lung
[32] = test system: NCI/ADR-RES ovarian
[33] = test system: OVCAR-3 ovarian
[34] = test system: OVCAR-4 ovarian
[35] = test system: OVCAR-5 ovarian
[36] = test system: OVCAR-8 ovarian
[37] = test system: PC-3 prostate
[38] = test system: RPMI-8226 leukemia
[39] = test system: SF-268 CNS
[40] = test system: SK-MEL-2 melanoma
[41] = test system: SK-MEL-28 melanoma
[42] = test system: SK-MEL-5 melanoma
[43] = test system: SK-OV-3 ovarian
[44] = test system: SN12C renal
[45] = test system: SNB-19 CNS
[46] = test system: SR leukemia
[47] = test system: SW-620 colon
[48] = test system: T-47D breast
[49] = test system: TK-10 renal
[50] = test system: U251 CNS
[51] = test system: UACC-257 melanoma
[52] = test system: UACC-62 melanoma
[53] = test system: UO-31 renal
[54] = test system: RXF 393 renal
[55] = test system: SF-295 CNS
[56] = test system: SF-539 CNS
[57] = test system: SNB-75 CNS

## COc1ccc2nc(NC(=O)COc3cc(/C=C\c4cc(OC)c(OC)c(OC)c4)ccc3OC)sc2c1
[1]
  GI50: 7.52 µM
  TGI: > 100 µM
[2]
  GI50: 3.5 µM
  TGI: > 100 µM
[3]
  GI50: 5.18 µM
  TGI: > 100 µM
[4]
  GI50: 7.77 µM
  TGI: > 100 µM
[5]
  GI50: 21.2 µM
  TGI: > 100 µM
[6]
  GI50: 3.2 µM
  TGI: > 100 µM
[7]
  GI50: 3.87 µM
  TGI: > 100 µM
[8]
  GI50: 3.89 µM
  TGI: > 100 µM
[9]
  GI50: 2.04 µM
  TGI: 6.96 µM
[10]
  GI50: 5.11 µM
  TGI: > 100 µM
[11]
  GI50: 7.35 µM
  TGI: > 100 µM
[12]
  GI50: 3.7 µM
  TGI: > 100 µM
[13]
  GI50: 2.89 µM
  TGI: > 100 µM
[14]
  GI50: 23.3 µM
  TGI: > 100 µM
[15]
  GI50: 6.28 µM
  TGI: > 100 µM
[16]
  GI50: 4.15 µM
  TGI: > 100 µM
[17]
  GI50: 3.34 µM
  TGI: > 100 µM
[18]
  GI50: 7 µM
  TGI: > 100 µM
[19]
  GI50: 3.6 µM
  TGI: > 100 µM
[20]
  GI50: 3.12 µM
  TGI: 21.2 µM
[21]
  GI50: 4.17 µM
  TGI: > 100 µM
[22]
  GI50: 4.33 µM
  TGI: > 100 µM
[23]
  GI50: > 100 µM
  TGI: > 100 µM
[24]
  GI50: 2.88 µM
  TGI: > 100 µM
[25]
  GI50: 5.4 µM
  TGI: > 100 µM
[26]
  GI50: 1.16 µM
  TGI: 6.44 µM
[27]
  GI50: 3.87 µM
  TGI: > 100 µM
[28]
  GI50: 4.51 µM
  TGI: > 100 µM
[29]
  GI50: 3.91 µM
  TGI: > 100 µM
[30]
  GI50: 3.73 µM
  TGI: > 100 µM
[31]
  GI50: 3.09 µM
  TGI: > 100 µM
[32]
  GI50: 2.3 µM
  TGI: 7.46 µM
[33]
  GI50: 2.17 µM
  TGI: 5.02 µM
[34]
  GI50: 5.31 µM
  TGI: > 100 µM
[35]
  GI50: 5.89 µM
  TGI: > 100 µM
[36]
  GI50: 5.28 µM
  TGI: > 100 µM
[37]
  GI50: 4.45 µM
  TGI: > 100 µM
[38]
  GI50: 5.43 µM
  TGI: > 100 µM
[39]
  GI50: 4.31 µM
  TGI: > 100 µM
[40]
  GI50: 4.07 µM
  TGI: > 100 µM
[41]
  GI50: 4.41 µM
  TGI: > 100 µM
[42]
  GI50: 2.68 µM
  TGI: 38.4 µM
[43]
  GI50: 4.69 µM
  TGI: > 100 µM
[44]
  GI50: 5.75 µM
  TGI: > 100 µM
[45]
  GI50: 6.3 µM
  TGI: > 100 µM
[46]
  GI50: 3.69 µM
  TGI: > 100 µM
[47]
  GI50: 5.1 µM
  TGI: > 100 µM
[48]
  GI50: 4.03 µM
  TGI: > 100 µM
[49]
  GI50: 7.54 µM
  TGI: > 100 µM
[50]
  GI50: 4 µM
  TGI: > 100 µM
[51]
  GI50: 63.9 µM
  TGI: > 100 µM
[52]
  GI50: 5.93 µM
  TGI: > 100 µM
[53]
  GI50: 4.31 µM
  TGI: > 100 µM

## Cc1c(-c2ccc(O)c(O)c2)oc(=O)c2c(O)cc(O)cc12
[1]
  GI50: 14.4 µM
  TGI: > 100 µM
[2]
  GI50: 20.7 µM
  TGI: 56.8 µM
[3]
  GI50: 19.4 µM
  TGI: > 100 µM
[4]
  GI50: 21.3 µM
  TGI: > 100 µM
[5]
  GI50: 6.78 µM
  TGI: 43.2 µM
[6]
  GI50: 11.3 µM
  TGI: 46.5 µM
[7]
  GI50: 2.83 µM
  TGI: > 100 µM
[8]
  GI50: 67.4 µM
  TGI: > 100 µM
[9]
  GI50: 28.8 µM
  TGI: > 100 µM
[10]
  GI50: 15.7 µM
  TGI: 63.9 µM
[11]
  GI50: 31.5 µM
  TGI: 88.6 µM
[12]
  GI50: 14 µM
  TGI: > 100 µM
[13]
  GI50: 9.66 µM
  TGI: > 100 µM
[14]
  GI50: 18.2 µM
  TGI: 61.5 µM
[15]
  GI50: 17.2 µM
  TGI: > 100 µM
[16]
  GI50: 9.69 µM
  TGI: 91.9 µM
[17]
  GI50: 54.1 µM
  TGI: > 100 µM
[18]
  GI50: 2.3 µM
  TGI: 6.34 µM
[19]
  GI50: 19.5 µM
  TGI: > 100 µM
[20]
  GI50: 12.2 µM
  TGI: 54.7 µM
[21]
  GI50: 13.1 µM
  TGI: > 100 µM
[22]
  GI50: 8.07 µM
  TGI: 68.3 µM
[23]
  GI50: 1.16 µM
  TGI: 10.3 µM
[24]
  GI50: 39.1 µM
  TGI: > 100 µM
[25]
  GI50: 86.8 µM
  TGI: > 100 µM
[26]
  GI50: 2.17 µM
  TGI: 6.14 µM
[27]
  GI50: 42.8 µM
  TGI: > 100 µM
[28]
  GI50: 21.3 µM
  TGI: > 100 µM
[30]
  GI50: 12.1 µM
  TGI: > 100 µM
[31]
  GI50: 5.08 µM
  TGI: > 100 µM
[32]
  GI50: 14.1 µM
  TGI: > 100 µM
[33]
  GI50: 11.1 µM
  TGI: 57.8 µM
[34]
  GI50: 46.5 µM
  TGI: > 100 µM
[35]
  GI50: 42.9 µM
  TGI: > 100 µM
[36]
  GI50: 17.9 µM
  TGI: 90 µM
[37]
  GI50: 29.5 µM
  TGI: > 100 µM
[38]
  GI50: 7.69 µM
  TGI: 45.3 µM
[54]
  GI50: 49.8 µM
  TGI: > 100 µM
[39]
  GI50: 11.1 µM
  TGI: > 100 µM
[55]
  GI50: 7.52 µM
  TGI: 28.9 µM
[56]
  GI50: 13.2 µM
  TGI: 63.7 µM
[40]
  GI50: 26 µM
  TGI: > 100 µM
[41]
  GI50: 19.8 µM
  TGI: > 100 µM
[42]
  GI50: 6.59 µM
  TGI: 30.8 µM
[43]
  GI50: 62.7 µM
  TGI: > 100 µM
[44]
  GI50: 14.5 µM
  TGI: 59.1 µM
[45]
  GI50: 45.6 µM
  TGI: > 100 µM
[46]
  GI50: 4.52 µM
  TGI: > 100 µM
[47]
  GI50: 4.92 µM
  TGI: > 100 µM
[48]
  GI50: 88.7 µM
  TGI: > 100 µM
[49]
  GI50: 7.97 µM
  TGI: 36 µM
[50]
  GI50: 9.67 µM
  TGI: > 100 µM
[51]
  GI50: 14.4 µM
  TGI: 53.3 µM
[52]
  GI50: 8.45 µM
  TGI: 45.1 µM
[53]
  GI50: 6.9 µM
  TGI: > 100 µM

## CC(Cc1ccc(O)cc1)NCC(O)c1ccc(O)c(O)c1 (stereo unspecified)
[1]
  TGI: > 100 µM
[2]
  TGI: > 100 µM
[3]
  TGI: > 100 µM
[4]
  TGI: > 100 µM
[5]
  TGI: > 100 µM
[6]
  TGI: > 100 µM
[7]
  TGI: > 100 µM
[9]
  TGI: > 100 µM
[10]
  TGI: > 100 µM
[12]
  TGI: > 100 µM
[13]
  TGI: > 100 µM
[14]
  TGI: > 100 µM
[15]
  TGI: > 100 µM
[16]
  TGI: > 100 µM
[17]
  TGI: > 100 µM
[18]
  TGI: > 100 µM
[19]
  TGI: > 100 µM
[20]
  TGI: > 100 µM
[21]
  TGI: > 100 µM
[22]
  TGI: > 100 µM
[23]
  TGI: > 100 µM
[24]
  TGI: > 100 µM
[25]
  TGI: > 100 µM
[26]
  TGI: > 100 µM
[27]
  TGI: > 100 µM
[28]
  TGI: > 100 µM
[29]
  TGI: > 100 µM
[30]
  TGI: > 100 µM
[31]
  TGI: > 100 µM
[32]
  TGI: > 100 µM
[33]
  TGI: > 100 µM
[34]
  TGI: > 100 µM
[35]
  TGI: > 100 µM
[36]
  TGI: > 100 µM
[37]
  TGI: > 100 µM
[38]
  TGI: > 100 µM
[54]
  TGI: > 100 µM
[39]
  TGI: > 100 µM
[55]
  TGI: > 100 µM
[56]
  TGI: > 100 µM
[40]
  TGI: > 100 µM
[41]
  TGI: > 100 µM
[42]
  TGI: > 100 µM
[43]
  TGI: > 100 µM
[44]
  TGI: > 100 µM
[45]
  TGI: > 100 µM
[57]
  TGI: > 100 µM
[46]
  TGI: > 100 µM
[47]
  TGI: > 100 µM
[48]
  TGI: > 100 µM
[49]
  TGI: > 100 µM
[50]
  TGI: > 100 µM
[51]
  TGI: > 100 µM
[52]
  TGI: > 100 µM
[53]
  TGI: > 100 µM
